Measurements reported in the supplement of paper PMC10307832.

What was measured:
Experiment in all cases: relative viability (nuclei count vs DMSO), 5 days (fraction); higher = more cells survive
[1] = tested on: BEN
Procedure, shortened: (§1)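 Each reported value is a median over duplicate plates. It expresses relative viability: treated-well nuclei count divided by vehicle-well nuclei count. Lung cancer cell lines in 1536-well plates were dosed by pin tool a day after seeding, alone with one drug or with a fixed anchor-drug dose plus five library-drug doses (not always all listed) in √10 steps, and nuclei were counted after 5 days.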

[2] = tested on: CAL-12T
Procedure, shortened: as §1

[3] = tested on: COR-L23
Procedure, shortened: as §1

[4] = tested on: HCC-366
Procedure, shortened: as §1

[5] = tested on: LOU-NH91
Procedure, shortened: as §1

[6] = tested on: LU99A
Procedure, shortened: as §1

[7] = tested on: NCI-H1355
Procedure, shortened: as §1

[8] = tested on: NCI-H1437
Procedure, shortened: as §1

[9] = tested on: NCI-H1650
Procedure, shortened: as §1

[10] = tested on: NCI-H1651
Procedure, shortened: as §1

[11] = tested on: NCI-H1734
Procedure, shortened: as §1

[12] = tested on: NCI-H1793
Procedure, shortened: as §1

[13] = tested on: NCI-H1975
Procedure, shortened: as §1

[14] = tested on: NCI-H2023
Procedure, shortened: as §1

[15] = tested on: NCI-H2085
Procedure, shortened: as §1

[16] = tested on: NCI-H2342
Procedure, shortened: as §1

[17] = tested on: NCI-H358
Procedure, shortened: as §1

[18] = tested on: NCI-H441
Procedure, shortened: as §1

[19] = tested on: NCI-H460
Procedure, shortened: as §1

[20] = tested on: NCI-H838
Procedure, shortened: as §1

[21] = tested on: SK-LU-1
Procedure, shortened: as §1

O=c1cc(N2CCOCC2)oc2c(-c3cccc4c3sc3ccccc34)cccc12 + CC(=O)Nc1cccc(-n2c(=O)n(C3CC3)c(=O)c3c(Nc4ccc(I)cc4F)n(C)c(=O)c(C)c32)c1 [Trametinib] (partner 0.02 µM)
relative viability ([1]; first compound 0.01 µM): 1.06 | relative viability ([1]; first compound 0.03162 µM): 1.07 | relative viability ([1]; first compound 0.1 µM): 1.06 | relative viability ([1]; first compound 0.3162 µM): 1.01 | relative viability ([1]; first compound 1 µM): 0.943 | relative viability ([2]; first compound 0.01 µM): 0.334 | relative viability ([2]; first compound 0.03162 µM): 0.417 | relative viability ([2]; first compound 0.1 µM): 0.354 | relative viability ([2]; first compound 0.3162 µM): 0.381 | relative viability ([2]; first compound 1 µM): 0.363 | relative viability ([3]; first compound 0.01 µM): 0.617 | relative viability ([3]; first compound 0.03162 µM): 0.614 | relative viability ([3]; first compound 0.1 µM): 0.552 | relative viability ([3]; first compound 0.3162 µM): 0.633 | relative viability ([3]; first compound 1 µM): 0.655 | relative viability ([4]; first compound 0.01 µM): 0.411 | relative viability ([4]; first compound 0.03162 µM): 0.355 | relative viability ([4]; first compound 0.1 µM): 0.36 | relative viability ([4]; first compound 0.3162 µM): 0.333 | relative viability ([4]; first compound 1 µM): 0.322 | relative viability ([5]; first compound 0.01 µM): 0.801 | relative viability ([5]; first compound 0.03162 µM): 0.798 | relative viability ([5]; first compound 0.1 µM): 0.782 | relative viability ([5]; first compound 0.3162 µM): 0.821 | relative viability ([5]; first compound 1 µM): 0.767 | relative viability ([6]; first compound 0.01 µM): 0.561 | relative viability ([6]; first compound 0.03162 µM): 0.576 | relative viability ([6]; first compound 0.1 µM): 0.562 | relative viability ([6]; first compound 0.3162 µM): 0.501 | relative viability ([6]; first compound 1 µM): 0.541 | relative viability ([7]; first compound 0.01 µM): 0.435 | relative viability ([7]; first compound 0.03162 µM): 0.435 | relative viability ([7]; first compound 0.1 µM): 0.435 | relative viability ([7]; first compound 0.3162 µM): 0.409 | relative viability ([7]; first compound 1 µM): 0.399 | relative viability ([8]; first compound 0.01 µM): 0.693 | relative viability ([8]; first compound 0.03162 µM): 0.548 | relative viability ([8]; first compound 0.1 µM): 0.531 | relative viability ([8]; first compound 0.3162 µM): 0.508 | relative viability ([8]; first compound 1 µM): 0.502 | relative viability ([9]; first compound 0.01 µM): 0.526 | relative viability ([9]; first compound 0.03162 µM): 0.643 | relative viability ([9]; first compound 0.1 µM): 0.782 | relative viability ([9]; first compound 0.3162 µM): 0.571 | relative viability ([9]; first compound 1 µM): 0.517 | relative viability ([10]; first compound 0.01 µM): 0.816 | relative viability ([10]; first compound 0.03162 µM): 0.818 | relative viability ([10]; first compound 0.1 µM): 0.817 | relative viability ([10]; first compound 0.3162 µM): 0.819 | relative viability ([10]; first compound 1 µM): 0.871 | relative viability ([11]; first compound 0.01 µM): 0.772 | relative viability ([11]; first compound 0.03162 µM): 0.747 | relative viability ([11]; first compound 0.1 µM): 0.637 | relative viability ([11]; first compound 0.3162 µM): 0.69 | relative viability ([11]; first compound 1 µM): 0.758 | relative viability ([12]; first compound 0.01 µM): 0.372 | relative viability ([12]; first compound 0.03162 µM): 0.411 | relative viability ([12]; first compound 0.1 µM): 0.504 | relative viability ([12]; first compound 0.3162 µM): 0.406 | relative viability ([12]; first compound 1 µM): 0.38 | relative viability ([13]; first compound 0.01 µM): 0.434 | relative viability ([13]; first compound 0.03162 µM): 0.337 | relative viability ([13]; first compound 0.1 µM): 0.401 | relative viability ([13]; first compound 0.3162 µM): 0.361 | relative viability ([13]; first compound 1 µM): 0.293 | relative viability ([14]; first compound 0.01 µM): 0.676 | relative viability ([14]; first compound 0.03162 µM): 0.574 | relative viability ([14]; first compound 0.1 µM): 0.624 | relative viability ([14]; first compound 0.3162 µM): 0.601 | relative viability ([14]; first compound 1 µM): 0.396 | relative viability ([15]; first compound 0.01 µM): 0.515 | relative viability ([15]; first compound 0.03162 µM): 0.541 | relative viability ([15]; first compound 0.1 µM): 0.515 | relative viability ([15]; first compound 0.3162 µM): 0.577 | relative viability ([15]; first compound 1 µM): 0.454 | relative viability ([16]; first compound 0.01 µM): 0.728 | relative viability ([16]; first compound 0.03162 µM): 0.874 | relative viability ([16]; first compound 0.1 µM): 0.928 | relative viability ([16]; first compound 0.3162 µM): 0.962 | relative viability ([16]; first compound 1 µM): 0.833 | relative viability ([17]; first compound 0.01 µM): 0.133 | relative viability ([17]; first compound 0.03162 µM): 0.14 | relative viability ([17]; first compound 0.1 µM): 0.115 | relative viability ([17]; first compound 0.3162 µM): 0.128 | relative viability ([17]; first compound 1 µM): 0.165 | relative viability ([18]; first compound 0.01 µM): 0.513 | relative viability ([18]; first compound 0.03162 µM): 0.431 | relative viability ([18]; first compound 0.1 µM): 0.406 | relative viability ([18]; first compound 0.3162 µM): 0.479 | relative viability ([18]; first compound 1 µM): 0.42 | relative viability ([19]; first compound 0.01 µM): 0.104 | relative viability ([19]; first compound 0.03162 µM): 0.127 | relative viability ([19]; first compound 0.1 µM): 0.185 | relative viability ([19]; first compound 0.3162 µM): 0.197 | relative viability ([19]; first compound 1 µM): 0.12 | relative viability ([20]; first compound 0.01 µM): 0.594 | relative viability ([20]; first compound 0.03162 µM): 0.557 | relative viability ([20]; first compound 0.1 µM): 0.481 | relative viability ([20]; first compound 0.3162 µM): 0.469 | relative viability ([20]; first compound 1 µM): 0.442 | relative viability ([21]; first compound 0.01 µM): 0.521 | relative viability ([21]; first compound 0.03162 µM): 0.453 | relative viability ([21]; first compound 0.1 µM): 0.505 | relative viability ([21]; first compound 0.3162 µM): 0.443 | relative viability ([21]; first compound 1 µM): 0.5
